The record followed here is PMC5047629, “Synthesis, Pharmacological Profile and Docking Studies of New Sulfonamides Designed as Phosphodiesterase-4 Inhibitors” (PLoS ONE, 2016).

Broadly, the inhibition is the share of the control response that was lost under treatment. In general, melting point refers to the temperature, or range, at which the solid turns liquid.

For one data set, the target named is T1, PDE4C (Homo sapiens, UniProt Q08493).
T1 construct: purchased MDS PHARMA
The data set is described as follows: PDE4C inhibition, IMAP fluorescence polarization protocol. It is filed as biochemical. Conditions: 1 μM; mean ± SEM, 3 experiments. On the procedure:
(§1) The enzymatic reactions were carried at room temperature in a 96-well black plate by co-incubating 25 μL of 200 nM FAM-cAMP (R7513), 5 μL of putative inhibitory compounds and 20 μL of the PDE4 isoform dissolved in assay buffer (R7364) for 1 h. All enzymes were obtained from human recombinant sources (MDS PHARMA), whereas the other reagents were purchased from Molecular Devices. […] PDE4 inhibitors were dissolved in dimethyl sulfoxide (DMSO) at a final concentration of 0.1%.
(§2) The inhibitory activities of the new sulfonamide derivatives were evaluated for their selectivity against the four isoforms of human PDE4, i.e. PDE4A, PDE4B, PDE4C, and PDE4D, using an IMAP-FP protocol.
(In general: Polarisation of emitted light reports the rotation of a fluorescent probe.)

A further data set concerns the target T2, PDE4B (Homo sapiens, UniProt Q07343).
T2 construct: purchased MDS PHARMA
The data set is described as follows: PDE4B inhibition, IMAP fluorescence polarization protocol. It counts as biochemical. Conditions: 1 μM, mean ± SEM, 3 experiments; for inhibition at 1 µM: read-out: PDE4B1 inhibition. Here is the method:
as §1, §2

The next data set addresses T3, PDE4D (Homo sapiens, UniProt Q08499).
T3 construct: purchased MDS PHARMA
The data set is described as follows: PDE4D inhibition, IMAP fluorescence polarization protocol. It counts as biochemical. The note with it: 1 μM, mean ± SEM, 3 experiments; for inhibition at 1 µM: read-out: PDE4D3 inhibition. Here is the method:
as §1, §2

The target of a further data set is T4, PDE4A (Homo sapiens, UniProt P27815).
T4 construct: purchased MDS PHARMA
T4 sequence (P27815 1-647 isoform P27815-4): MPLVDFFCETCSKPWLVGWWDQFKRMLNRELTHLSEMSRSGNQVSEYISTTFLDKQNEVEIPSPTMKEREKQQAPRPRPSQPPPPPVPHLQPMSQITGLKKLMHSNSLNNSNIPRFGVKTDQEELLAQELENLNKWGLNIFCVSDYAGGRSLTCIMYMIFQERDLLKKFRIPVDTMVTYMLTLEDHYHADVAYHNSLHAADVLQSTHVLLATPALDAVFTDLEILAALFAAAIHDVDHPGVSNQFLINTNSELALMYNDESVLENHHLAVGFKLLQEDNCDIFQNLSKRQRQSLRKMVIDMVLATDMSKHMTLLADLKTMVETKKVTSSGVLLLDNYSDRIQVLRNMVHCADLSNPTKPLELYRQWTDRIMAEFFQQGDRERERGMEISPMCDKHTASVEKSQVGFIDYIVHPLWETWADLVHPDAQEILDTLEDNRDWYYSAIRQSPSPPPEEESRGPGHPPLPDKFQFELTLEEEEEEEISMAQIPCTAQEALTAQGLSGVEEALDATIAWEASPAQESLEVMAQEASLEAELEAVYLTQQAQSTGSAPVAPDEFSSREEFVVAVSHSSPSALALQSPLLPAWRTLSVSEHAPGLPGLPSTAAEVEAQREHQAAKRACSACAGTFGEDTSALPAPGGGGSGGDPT
The data set is described as follows: PDE4A inhibition, IMAP fluorescence polarization protocol. It counts as biochemical. The note with it: 1 μM; mean ± SEM, 3 experiments. Here is the method:
as §1, §2

Molecules are shown by their SMILES.

T2 sequence (Q07343 whole entry): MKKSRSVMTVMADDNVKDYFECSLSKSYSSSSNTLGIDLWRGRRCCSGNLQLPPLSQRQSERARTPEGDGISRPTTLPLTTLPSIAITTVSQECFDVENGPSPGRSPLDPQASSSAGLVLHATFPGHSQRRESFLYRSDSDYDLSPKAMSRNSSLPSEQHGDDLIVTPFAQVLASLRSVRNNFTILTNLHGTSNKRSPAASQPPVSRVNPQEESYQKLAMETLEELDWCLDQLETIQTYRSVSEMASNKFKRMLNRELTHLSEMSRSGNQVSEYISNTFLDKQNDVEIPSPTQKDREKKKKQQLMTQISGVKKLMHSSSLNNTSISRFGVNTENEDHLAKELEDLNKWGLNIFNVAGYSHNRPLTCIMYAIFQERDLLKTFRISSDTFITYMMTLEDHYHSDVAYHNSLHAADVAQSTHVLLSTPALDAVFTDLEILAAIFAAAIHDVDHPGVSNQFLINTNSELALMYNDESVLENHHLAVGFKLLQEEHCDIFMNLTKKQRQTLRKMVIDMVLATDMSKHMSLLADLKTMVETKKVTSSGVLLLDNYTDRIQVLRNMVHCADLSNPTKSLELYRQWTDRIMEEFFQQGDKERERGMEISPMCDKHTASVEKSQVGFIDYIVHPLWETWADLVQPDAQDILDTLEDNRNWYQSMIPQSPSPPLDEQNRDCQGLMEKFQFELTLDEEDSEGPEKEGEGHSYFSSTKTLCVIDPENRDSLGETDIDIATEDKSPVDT
T1 sequence (Q08493 whole entry): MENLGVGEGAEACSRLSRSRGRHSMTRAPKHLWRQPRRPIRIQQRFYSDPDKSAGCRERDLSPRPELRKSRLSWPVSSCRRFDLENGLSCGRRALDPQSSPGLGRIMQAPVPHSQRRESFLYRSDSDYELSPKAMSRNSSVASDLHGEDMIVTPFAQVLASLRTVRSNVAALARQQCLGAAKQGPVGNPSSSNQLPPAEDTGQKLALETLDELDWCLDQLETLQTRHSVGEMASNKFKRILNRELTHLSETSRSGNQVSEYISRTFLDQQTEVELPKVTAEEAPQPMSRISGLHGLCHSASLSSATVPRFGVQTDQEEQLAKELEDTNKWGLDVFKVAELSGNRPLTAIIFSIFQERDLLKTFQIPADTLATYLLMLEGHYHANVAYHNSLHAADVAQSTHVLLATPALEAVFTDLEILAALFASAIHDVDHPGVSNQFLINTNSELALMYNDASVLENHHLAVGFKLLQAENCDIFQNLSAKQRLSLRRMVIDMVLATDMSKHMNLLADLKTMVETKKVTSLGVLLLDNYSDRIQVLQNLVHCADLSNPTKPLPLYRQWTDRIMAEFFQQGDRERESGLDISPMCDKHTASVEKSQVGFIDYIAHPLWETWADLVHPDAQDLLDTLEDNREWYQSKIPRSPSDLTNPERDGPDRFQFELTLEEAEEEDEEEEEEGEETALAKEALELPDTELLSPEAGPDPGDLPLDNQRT
T3 sequence (Q08499 1-673 isoform Q08499-2): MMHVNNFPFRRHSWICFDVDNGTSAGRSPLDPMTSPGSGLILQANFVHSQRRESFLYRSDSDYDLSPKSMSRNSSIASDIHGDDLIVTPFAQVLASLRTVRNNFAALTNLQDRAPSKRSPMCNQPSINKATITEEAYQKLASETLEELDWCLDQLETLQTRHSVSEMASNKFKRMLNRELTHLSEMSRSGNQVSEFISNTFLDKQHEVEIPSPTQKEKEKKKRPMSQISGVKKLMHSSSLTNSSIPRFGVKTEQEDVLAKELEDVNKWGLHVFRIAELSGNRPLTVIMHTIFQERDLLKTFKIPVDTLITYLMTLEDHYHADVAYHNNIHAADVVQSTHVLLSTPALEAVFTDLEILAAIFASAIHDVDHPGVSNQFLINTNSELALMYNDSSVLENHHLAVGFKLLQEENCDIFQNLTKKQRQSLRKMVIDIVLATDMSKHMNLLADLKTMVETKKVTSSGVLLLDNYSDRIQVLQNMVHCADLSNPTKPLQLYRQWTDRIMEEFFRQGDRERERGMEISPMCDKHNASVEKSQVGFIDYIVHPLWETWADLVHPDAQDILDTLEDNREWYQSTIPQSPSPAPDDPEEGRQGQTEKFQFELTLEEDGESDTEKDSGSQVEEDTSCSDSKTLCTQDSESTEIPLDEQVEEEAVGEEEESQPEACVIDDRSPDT

`Cc1cc2c(cc1S(=O)(=O)NCCc1ccccc1)OCO2` [5 (LASSBio-964), 6-methyl-N-phenethylbenzo[d][1, 3]dioxole-5-sulfonamide] returned a melting point of 88 to 89 °C. The compound also registered an inhibition at 1 µM on PDE4C of 3.9 ± 2.9%. In addition, the PDE4B1 inhibition entry at PDE4B was “Inactive”. On PDE4D, the PDE4D3 inhibition entry is reported as “only a marginal activity” and the inhibition at 1 µM was found to be 33.5 ± 4.5%. The PDE4A1A inhibition result at PDE4A is given as “Inactive”.

On to `COc1ccc(CCN(C)S(=O)(=O)c2cc3c(cc2C)OCO3)cc1OC` [6b (LASSBio-959), N-(3,4-dimethoxyphenethyl)-N-6-dimethylbenzo[d][1, 3]dioxole-5-sulfonamide], for which the melting point is 92 to 94 °C. This compound also registered an inhibition at 1 µM at PDE4C of 5.6 ± 1%. Moreover, the PDE4B1 inhibition entry on PDE4B is recorded as “Inactive”. Also, at PDE4D, the PDE4D3 inhibition result is recorded as “only a marginal activity” and the inhibition at 1 µM is 42.4 ± 3.5%. The PDE4A1A inhibition result on PDE4A is “Inactive”.

Compound `COc1ccc(CCN(Cc2ccccc2)S(=O)(=O)c2cc3c(cc2C)OCO3)cc1OC` [6c (LASSBio-960), N-(3,4-dimethoxyphenethyl)-N-benzyl-6-methylbenzo[d][1, 3]dioxole-5-sulfonamide] showed a melting point of 119 to 121 °C. The same compound returned an inhibition at 1 µM at PDE4C of 2 ± 0.8%. The PDE4B1 inhibition result on PDE4B is “Inactive”. The inhibition at 1 µM on PDE4D worked out at 21.6 ± 4.5%. Moreover, the PDE4A1A inhibition entry on PDE4A was “Inactive”.

Consider `C=CCN(CCc1ccc(OC)c(OC)c1)S(=O)(=O)c1cc2c(cc1C)OCO2` [6d (LASSBio-961), N-(3,4-dimethoxyphenethyl)-N-allyl-6-methylbenzo[d][1, 3]dioxole-5-sulfonamide], for which the melting point lay in the range of 74 to 76 °C. At PDE4C, this compound came in with an inhibition at 1 µM of 6.3 ± 4.1%. Besides, the PDE4B1 inhibition result at PDE4B is recorded as “Inactive”. Also, on PDE4D, the PDE4D3 inhibition result is reported as “only a marginal activity” and the inhibition at 1 µM amounted to 40.4 ± 4.5%. For the same compound, the PDE4A1A inhibition result on PDE4A is on record as “Inactive”.

Regarding `COc1ccc(CCN(C2CCCC2)S(=O)(=O)c2cc3c(cc2C)OCO3)cc1OC` [6e (LASSBio-962), N-(3,4-dimethoxyphenethyl)-N-cyclopentyl-6-methylbenzo[d][1, 3]dioxole-5-sulfonamide], the values for the inhibition at 1 µM against PDE4C and at PDE4D were 7.6 ± 1.1% and 23.6 ± 2.2%, respectively. For the same compound, at PDE4B, the PDE4B1 inhibition entry is “Inactive”. Further, on PDE4A, the PDE4A1A inhibition entry was “Inactive”.

For `COc1ccc(CCNS(=O)(=O)c2ccccc2)cc1OC` [6f (LASSBio-965), N-(3,4-dimethoxyphenethyl)benzenesulfonamide], the melting point fell in the range of 86 to 88 °C. At PDE4C, this compound returned an inhibition at 1 µM of 9.7 ± 3.3%. The PDE4B1 inhibition result on PDE4B was “Inactive”. Further, the inhibition at 1 µM at PDE4D amounted to 19.3 ± 4%. Also, the PDE4A1A inhibition entry at PDE4A is given as “Inactive”.

For the compound `COc1ccc(CCN(C)S(=O)(=O)c2ccccc2)cc1OC` [6g (LASSBio-982), N-(3,4-dimethoxyphenethyl)-N-methylbenzenesulfonamide], the melting point is 67 to 68 °C. 1 µM produced 4.1% inhibition on PDE4C. For the same compound, on PDE4B, the PDE4B1 inhibition result is listed as “Inactive”. On PDE4D, the PDE4D3 inhibition result is on record as “only a marginal activity” and the inhibition at 1 µM stood at 37.4 ± 3.9%. Moreover, the PDE4A1A inhibition entry at PDE4A is on record as “Inactive”.

As for `COc1ccc(CCN(Cc2ccccc2)S(=O)(=O)c2ccccc2)cc1OC` [6h (LASSBio-984), N-(3,4-dimethoxyphenethyl)-N-benzylbenzenesulfonamide], the melting point fell in the range of 82 to 84 °C. Besides, on PDE4C, the inhibition at 1 µM stood at 9.8 ± 1.7%. Besides, the inhibition at 1 µM on PDE4B came out at 5 ± 0.6%. Further, the inhibition at 1 µM at PDE4D was determined as 14.3 ± 5.4%. On PDE4A, the PDE4A1A inhibition entry was “Inactive”.

For the compound `C=CCN(CCc1ccc(OC)c(OC)c1)S(=O)(=O)c1ccccc1` [6i (LASSBio-983), N-(3,4-dimethoxyphenethyl)-N-allylbenzenesulfonamide], the melting point was in the range of 64 to 65 °C. Besides, at PDE4C, 1 µM produced 9.7 ± 0.8% inhibition. Besides, the PDE4B1 inhibition result at PDE4B is “Inactive”. Besides, on PDE4D, the PDE4D3 inhibition result is recorded as “only a marginal activity” and the inhibition at 1 µM was 67.6 ± 2.6%. For the same compound, on PDE4A, the PDE4A1A inhibition result is “Inactive”.

As to `COc1ccc(CCNS(C)(=O)=O)cc1OC` [6j (LASSBio-985), N-(3,4-dimethoxyphenethyl)methanesulfonamide], the melting point fell in the range of 73 to 74 °C. At PDE4C, 1 µM produced 16.3 ± 1% inhibition. For the same compound, the inhibition at 1 µM at PDE4B was found to be 12.6 ± 2.1%. Besides, on PDE4D, the PDE4D3 inhibition entry is “only a marginal activity” and the inhibition at 1 µM was determined as 62.9 ± 3.8%. Besides, the PDE4A1A inhibition result on PDE4A was “Inactive”.

As for `COc1ccc(CCN(C)S(C)(=O)=O)cc1OC` [6k (LASSBio-1271), N-(3,4-dimethoxyphenethyl)-N-methylmethanesulfonamide], the melting point fell in the range of 48 to 49 °C. Further, the PDE4C inhibition entry at PDE4C is recorded as “Inactive”. Besides, at PDE4B, the PDE4B1 inhibition entry is on record as “Inactive”. For the same compound, the PDE4D3 inhibition entry on PDE4D was “Inactive”. Also, on PDE4A, the PDE4A1A inhibition result is given as “Inactive”.
